Data from US9789099B2, “Cosmetic or dermatological preparation for prophylaxis and/or treatment of atopic dermatitis” (Beiersdorf AG, priority 2012, dated 2017).

Experiments:
Format in all cases: in vivo, human
[1] = test system: patients with atopic dermatitis of mild to moderate severity; assay: Randomized, blind, controlled two-armed study: dermatologist-assessed clinical severity (local SCORAD, erythema)
From the text: Using a randomized, blind (participant), controlled, two-armed study design, it was the aim to evaluate the cortisone saving potential and the non-inferiority of the test sample during an application twice daily lasting for four weeks compared to the once-weekly treatment with 1% hydrocortisone (HC), followed by an application of the test sample for a further three weeks. The study results were based on an assessment, controlled by the dermatologist, of the degree of severity of the clinical size of atopic dermatitis, the colonization of the skin lesions with S. aureus, biotechnological measurement of parameters of the epidermal barrier function, as well as the itching intensity in the test area.

S. aureus = assay: Same study: colonization of the skin lesions with S. aureus; conditions: topical; same two-arm design
From the text: (§1) Using a randomized, blind (participant), controlled, two-armed study design, it was the aim to evaluate the cortisone saving potential and the non-inferiority of the test sample during an application twice daily lasting for four weeks compared to the […] treatment with 1% hydrocortisone (HC), followed by an application of the test sample for a further three weeks. The study results were based on an assessment, controlled by the dermatologist, of the degree of severity of the clinical size of atopic dermatitis, the colonization of the skin lesions with S. aureus, biotechnological measurement of parameters of the epidermal barrier function, as well as the itching intensity in the test area.

[2] = test system: lesional skin of patients with atopic dermatitis; assay: Same study: parameters of the epidermal barrier function (TEWL, skin moisture) on lesional skin
From the text: as §1

C[C@]12CCC(=O)C=C1CC[C@@H]1[C@@H]2[C@@H](O)C[C@@]2(C)[C@H]1CC[C@]2(O)C(=O)CO [1% hydrocortisone, hydrocortisone]
erythema ([1]; topical, same two-arm design): significant reduction | local SCORAD ([1]; topical, test sample twice daily for four weeks vs 1% HC for first week followed by test sample for three weeks): significant reduction | changes in local SCORAD, erythema, TEWL and S. aureus colonization relative to the other arm ([1]; within the first study week, differences between arms not significant apart from TEWL on day 7): greater changes | colonization of skin lesions with S. aureus (S. aureus): significant reduction | skin moisture of lesional skin ([2]; application in the first study week): only slightly | lesional skin TEWL (transepidermal water loss) ([2]; topical, same two-arm design): significant reduction
